Experiments:
TNKS2 = molecular target: T1, TNKS2 (Homo sapiens, UniProt Q9H2K2); assay: Modified TNKS2 Assay 2 (auto-parsylation, [3H]-NAD+ SPA); type: biochemical; conditions: 6 nM TNKS2, 96 well
T1 sequence (Q9H2K2 1-1166): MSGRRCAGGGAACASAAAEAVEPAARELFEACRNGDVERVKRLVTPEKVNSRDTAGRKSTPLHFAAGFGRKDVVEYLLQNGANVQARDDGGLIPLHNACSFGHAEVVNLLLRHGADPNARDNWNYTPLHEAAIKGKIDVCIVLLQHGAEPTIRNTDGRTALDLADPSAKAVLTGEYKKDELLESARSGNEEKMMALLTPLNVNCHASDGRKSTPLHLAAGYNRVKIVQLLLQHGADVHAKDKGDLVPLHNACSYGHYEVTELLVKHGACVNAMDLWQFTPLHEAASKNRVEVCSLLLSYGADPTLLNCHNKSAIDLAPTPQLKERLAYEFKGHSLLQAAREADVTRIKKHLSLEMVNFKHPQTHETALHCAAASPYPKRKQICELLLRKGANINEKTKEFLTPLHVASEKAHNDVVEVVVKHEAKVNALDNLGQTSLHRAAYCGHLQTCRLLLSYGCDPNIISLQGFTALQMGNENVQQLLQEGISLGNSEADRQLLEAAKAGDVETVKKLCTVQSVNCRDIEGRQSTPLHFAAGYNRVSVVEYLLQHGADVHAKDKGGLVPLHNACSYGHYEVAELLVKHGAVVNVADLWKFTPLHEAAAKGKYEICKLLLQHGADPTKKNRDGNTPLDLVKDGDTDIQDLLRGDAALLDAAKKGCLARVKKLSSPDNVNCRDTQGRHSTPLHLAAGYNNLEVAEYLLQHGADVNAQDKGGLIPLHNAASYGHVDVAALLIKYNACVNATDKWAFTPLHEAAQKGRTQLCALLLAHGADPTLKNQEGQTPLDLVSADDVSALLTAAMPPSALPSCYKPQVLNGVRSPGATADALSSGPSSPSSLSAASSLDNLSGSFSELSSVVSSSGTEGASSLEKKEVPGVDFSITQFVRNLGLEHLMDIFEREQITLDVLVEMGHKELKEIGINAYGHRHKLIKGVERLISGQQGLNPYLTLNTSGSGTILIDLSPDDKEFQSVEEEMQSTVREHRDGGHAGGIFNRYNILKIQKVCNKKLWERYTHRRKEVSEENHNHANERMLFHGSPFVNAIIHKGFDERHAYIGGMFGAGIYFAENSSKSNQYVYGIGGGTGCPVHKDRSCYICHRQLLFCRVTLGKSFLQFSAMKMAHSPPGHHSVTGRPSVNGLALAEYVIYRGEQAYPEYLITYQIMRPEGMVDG

[1] = test system: wildtype Wnt signaling cascade; assay: HEK293 TOP Assay (Super TopFlash luciferase reporter, Wnt-3a stimulated); type: cell-based; conditions: Homo sapiens, HEK293, 16 h
Summary of the method: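 HEK293 cells stably carrying Super TopFlash (TOP) or FOP reporter, stimulated with recombinant human Wnt-3a (2500–5 ng/ml, two-fold steps). Both lines incubated in parallel with compound from 50 μM to 15 nM (3.16-fold) in CAFTY buffer pH 7.4 with 2 mM Ca2+ and 0.01% BSA; selectivity judged TOP vs FOP.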

[2] = HEK293 TOP reporter cell line, Wnt-3a at EC50, 16 hours incubation, compound dilution series 50 μM to 15 nM
[3] = HEK293 TOP reporter cells, Wnt3a at EC50, 16 hours, luciferase

Structure (SMILES)	IC50 (TNKS2) [nM]	IC50 [1, 2] [nM]	IC50 [1, 3] [nM]
O=C(Nc1ccc(NC(=O)c2[nH]cnc2C(=O)N2CCOCC2)cc1)c1ccc(F)cc1Cl [Example 29, N-{4-[(2-chloro-4-fluorobenzoyl)amino]phenyl}-5-(morpholin-4-ylcarbonyl)-1H-imidazole-4-carboxamide]	1900	3930	3920
C[C@@H]1CCCCN1CCNC(=O)c1[nH]cnc1C(=O)Nc1ccc(NC(=O)c2ccc(F)cc2Cl)cc1 [Example 267, N^4-{4-[(2-chloro-4-fluorobenzoyl)amino]phenyl}-N^5-{2-[(2R)-2-methylpiperidin-1-yl]ethyl}-1H-imidazole-4,5-dicarboxamide]	3	20	
CNC(=O)c1nc[nH]c1C(=O)Nc1ccc(NC(=O)c2nccnc2Cl)cc1 [Example 372, N^5-(4-{[(3-chloropyrazin-2-yl)carbonyl]amino}phenyl)-N^4-methyl-1H-imidazole-4,5-dicarboxamide]	4800	9700	
O=C(Nc1ccc(NC(=O)c2nc[nH]c2C(=O)N[C@H]2CCNC2)cc1)c1ccc(F)cc1Cl [Example 281, N^4-{4-[(2-chloro-4-fluorobenzoyl)amino]phenyl}-N^5-[(3S)-pyrrolidin-3-yl]-1H-imidazole-4,5-dicarboxamide]	70	1200	
CNC(=O)c1nc[nH]c1C(=O)Nc1ccc(NC(=O)c2ccc(S(C)(=O)=O)cc2Cl)cc1 [Example 55, N^5-(4-{[2-chloro-4-(methylsulfonyl)benzoyl]amino}phenyl)-N^4-methyl-1H-imidazole-4,5-dicarboxamide]	70	270	
CN1CCN(CC(C)(C)CNC(=O)c2nc[nH]c2C(=O)Nc2ccc(NC(=O)c3ccc(F)cc3Cl)cc2)CC1 [Example 415, N^5-{4-[(2-chloro-4-fluorobenzoyl)amino]phenyl}-N^4-[2,2-dimethyl-3-(4-methylpiperazin-1-yl)propyl]-1H-imidazole-4,5-dicarboxamide]	80	560	
O=C(Nc1ccc(NC(=O)c2nc[nH]c2C(=O)NCC2CCOCC2)cc1)c1ccc(F)cc1Cl [Example 397, N^5-{4-[(2-chloro-4-fluorobenzoyl)amino]phenyl}-N^4-(tetrahydro-2H-pyran-4-ylmethyl)-1H-imidazole-4,5-dicarboxamide]	200	460	
CNC(=O)c1nc[nH]c1C(=O)Nc1ccc(NC(=O)c2ccc(F)cc2I)cc1 [Example 61, N^5-{4-[(4-fluoro-2-iodobenzoyl)amino]phenyl}-N^4-methyl-1H-imidazole-4,5-dicarboxamide]	60	100	
Cc1cc(NC(=O)c2[nH]cnc2C(=O)NCCN(C)C)ccc1NC(=O)c1ccc(F)cc1Cl [Example 84, N^5-{4-[(2-chloro-4-fluorobenzoyl)amino]-3-methylphenyl}-N^4-[2-(dimethylamino)ethyl]-1H-imidazole-4,5-dicarboxamide]	260	620	
CN(C)CCNC(=O)c1nc[nH]c1C(=O)Nc1ccc(NC(=O)c2ccc(F)cc2)c(F)c1 [Example 77, N^4-[2-(dimethylamino)ethyl]-N^5-{3-fluoro-4-[(4-fluorobenzoyl)amino]phenyl}-1H-imidazole-4,5-dicarboxamide]	1800	4400	
O=C(Nc1ccc(NC(=O)c2nc[nH]c2C(=O)NCCN2CCCCC2)cc1OC(F)(F)F)c1ccc(F)cc1Cl [Example 293, N^4-{4-[(2-chloro-4-fluorobenzoyl)amino]-3-(trifluoromethoxy)phenyl}-N^5-[2-(piperidin-1-yl)ethyl]-1H-imidazole-4,5-dicarboxamide]	110	570	
CNC(=O)c1nc[nH]c1C(=O)Nc1ccc(NC(=O)c2ccccc2)cc1 [Example 21, N^5-[4-(benzoylamino)phenyl]-N^4-methyl-1H-imidazole-4,5-dicarboxamide]	> 10000	12000	12000
CNC(=O)c1nc[nH]c1C(=O)Nc1ccc(NC(=O)c2cccc(Cl)n2)cc1 [Example 353, N^5-(4-{[(6-chloropyridin-2-yl)carbonyl]amino}phenyl)-N^4-methyl-1H-imidazole-4,5-dicarboxamide]	> 10000	50000	
CN1CC2(C1)CN(C(=O)c1nc[nH]c1C(=O)Nc1ccc(NC(=O)c3ccc(F)cc3Cl)cc1)C2 [Example 46, N-{4-[(2-chloro-4-fluorobenzoyl)amino]phenyl}-4-[(6-methyl-2,6-diazaspiro[3.3]hept-2-yl)carbonyl]-1H-imidazole-5-carboxamide]	1100	290	
CNC(=O)c1nc[nH]c1C(=O)Nc1ccc(NC(=O)c2ccc(F)cc2Br)cc1 [Example 56, N^5-{4-[(2-bromo-4-fluorobenzoyl)amino]phenyl}-N^4-methyl-1H-imidazole-4,5-dicarboxamide]	570	120	
CNC(=O)c1nc[nH]c1C(=O)Nc1ccc(NC(=O)c2c(C)cccc2Cl)cc1 [Example 343, N^5-{4-[(2-chloro-6-methylbenzoyl)amino]phenyl}-N^4-methyl-1H-imidazole-4,5-dicarboxamide]	1700	1450	
NCCNC(=O)c1[nH]cnc1C(=O)Nc1ccc(NC(=O)c2ccc(F)cc2Cl)cc1 [Example 290, N^5-(2-aminoethyl)-N^4-{4-[(2-chloro-4-fluorobenzoyl)amino]phenyl}-1H-imidazole-4,5-dicarboxamide]	110	710	
CNC(=O)c1nc[nH]c1C(=O)Nc1ccc(NC(=O)c2cc(F)c(F)cc2C)cc1 [Example 377, N^5-{4-[(4,5-difluoro-2-methylbenzoyl)amino]phenyl}-N^4-methyl-1H-imidazole-4,5-dicarboxamide]	330	950	
CNC(=O)c1nc[nH]c1C(=O)Nc1ccc(NC(=O)c2cc(C(F)(F)F)ccc2Cl)cc1 [Example 352, N^5-(4-{[2-chloro-5-(trifluoromethyl)benzoyl]amino}phenyl)-N^4-methyl-1H-imidazole-4,5-dicarboxamide]	1300	710	
CC1(C)CC(NC(=O)c2nc[nH]c2C(=O)Nc2ccc(NC(=O)c3ccc(F)cc3Cl)cc2)CCO1 (stereo not shown) [Example 391, N^5-{4-[(2-chloro-4-fluorobenzoyl)amino]phenyl}-N^4-(2,2-dimethyltetrahydro-2H-pyran-4-yl)-1H-imidazole-4,5-dicarboxamide]	450	670	
Cc1cc(NC(=O)c2[nH]cnc2C(=O)NCCN2CCCCC2)ccc1NC(=O)c1ccc(F)cc1Cl [Example 85, N^5-{4-[(2-chloro-4-fluorobenzoyl)amino]-3-methylphenyl}-N^4-[2-(piperidin-1-yl)ethyl]-1H-imidazole-4,5-dicarboxamide]	10	160	
O=C(Nc1ccc(NC(=O)c2[nH]cnc2C(=O)NCCN2CCCCC2)cc1F)c1ccc(F)cc1 [Example 78, N^5-{3-fluoro-4-[(4-fluorobenzoyl)amino]phenyl}-N^4-[2-(piperidin-1-yl)ethyl]-1H-imidazole-4,5-dicarboxamide]	> 10000	280	
CCNC(=O)c1nc[nH]c1C(=O)Nc1ccc(NC(=O)c2cccc(OC)c2Cl)cc1 [Example 260, N^5-{4-[(2-chloro-3-methoxybenzoyl)amino]phenyl}-N^4-ethyl-1H-imidazole-4,5-dicarboxamide]	6200	2100	
O=C(Nc1ccc(NC(=O)c2nc[nH]c2C(=O)NCCN2CCC(F)(F)C2)cc1)c1ccc(F)cc1Cl [Example 279, N^4-{4-[(2-chloro-4-fluorobenzoyl)amino]phenyl}-N^5-[2-(3,3-difluoropyrrolidin-1-yl)ethyl]-1H-imidazole-4,5-dicarboxamide]	20	910	
CNC(=O)c1nc[nH]c1C(=O)Nc1ccc(NC(=O)c2c(F)ccc(F)c2Cl)cc1 [Example 374, N^5-{4-[(2-chloro-3,6-difluorobenzoyl)amino]phenyl}-N^4-methyl-1H-imidazole-4,5-dicarboxamide]	1300	1800	

From patent US9884063B2, “Amido-substituted azole compounds” (Bayer Pharma Aktiengesellschaft, priority 2014, dated 2018)
